Experimental data: US20080031922A1, “Delivery System” (priority 2004, published 2008)
“And” between values parts separate entries of the source, which are not always exact repeats. Equal values may be shown once. Blank lines part the entries; values can stand above or below the compound they belong to.

Legend:
Format in all cases: physicochemical
[1] = in vitro release rate of danazol from intravaginal ring (IVR)
Experimental: The release rate of the therapeutically active substance from the device was measured in vitro as follows: The devices (implant, intravaginal ring, intracervical or intrauterine system) were attached into a stainless steel holder in vertical position and the holders with the devices were placed into glass bottles containing 75 ml of a dissolution medium, a 1 wt-% hydroxypropyl cyclodextrin solution. The glass bottles were shaked in shaking waterbath 100 rpm at 37° C. The dissolution medium was withdrawn and replaced by a fresh dissolution medium at predetermined time intervals, and the amount of the released substance was analysed by using standard HPLC methods. The concentration of the dissolution medium and the moment of change (withdrawal and replacement) of medium were selected, so that sink-conditions were maintained during the test. […] Hydroxypropyl β-cyclodextrin (HPBCD) was used as the regulating agent. Three different implants with different hydroxypropyl β-cyclodextrin (HPBCD) contents in the membrane were made and the results were compared to corresponding implants without any added HPBCD. All the implants consisted of a core containing the therapeutically active agent and a release rate-controlling membrane encasing the core. The core and the membrane silicone elastomer rods were manufactured by extrusion and the implant compositions were made by swelling the membrane in propanol, as explained above. The content of the therapeutically active agent was 20 wt-% (weight percent) in the core and the micronized hormone was mixed into the elastomer with a mixer before extrusion. The diameters of the IVR rings were ca. 50-55 mm and the periphery of the cross section ca. 9-10 mm, the thicknesses of the membranes were 0.25, 0.35 and 0.7 mm and the HPBCD contents of the membrane were 0.17 wt-%, 1.7 wt-% and 7.7 wt-% respectively. The results are shown in FIG. 1 for the daily in vitro release rate per core area (μg/(d*mm^2), shown as the y axis and days shown in the x-axis), wherein the empty triangles represent the results for 0.17 wt-% HPBCD-content in the membrane with 0.7 mm wall thickness. The empty squares illustrate the results for 1.7 wt-% HPBCD-content in the membrane with 0.35 mm wall thickness and the stars show the results for 7.7 wt-% HPBCD-content in the membrane with 0.25 mm wall thickness. The full triangles represent the comparative results for a membrane with wall thickness of 0.3 mm and the full squares illustrate the comparative results for a membrane with wall thickness of 0.9 mm.

[2] = in vitro release rate of FAP from intrauterine system (IUS)
Experimental: The release rate of the therapeutically active substance from the device was measured in vitro as follows:
The devices (implant, intravaginal ring, intracervical or intrauterine system) were attached into a stainless steel holder in vertical position and the holders with the devices were placed into glass bottles containing 75 ml of a dissolution medium, a 1 wt-% hydroxypropyl cyclodextrin solution. The glass bottles were shaked in shaking waterbath 100 rpm at 37° C. The dissolution medium was withdrawn and replaced by a fresh dissolution medium at predetermined time intervals, and the amount of the released substance was analysed by using standard HPLC methods. The concentration of the dissolution medium and the moment of change (withdrawal and replacement) of medium were selected, so that sink-conditions were maintained during the test.
HPBCD modification was tested with a fluorinated antiprogestin derivative (FAP, 11-(4-Acetylphenyl)-17-hydroxy-17-(1,1,2,2,2-pentafluoroethyl)estra-4,9-dien-3-one) in intrauterine (IUS) system. Two samples of 1 and 4 wt-% of HPBCD content in the membrane were prepared by combining with swelling separately extruded membrane and core elastomer rods over the IUS T-frame. The swelling agent was isopropanol.
The content of the therapeutically active agent in the core elastomer was 65 wt-% and the outer diameter of the core was 2.88-2.92 mm and length 21.0-21.1 mm. The membrane was 3 mm longer than the core and the thickness of the membrane was 0,25 mm. FIG. 3 presents the release rate of the therapeutically active agent (μg/d, shown in the y-axis) from two FAP containing intrauterine systems as a function of time (days, shown in the x-axis) compared to a reference sample. Indeed, the squares represent the results for the reference sample, the losanges illustrate the results for the cyclodextrin modified membrane, when the amount of cyclodextrin was 1 wt-% and the triangles represent the results for the cyclodextrin modified membrane, when the amount of cyclodextrin was 4 wt-%.

[3] = in vitro release rate of gestodene from implant
Experimental: The release rate of the therapeutically active substance from the device was measured in vitro as follows: The devices (implant, intravaginal ring, intracervical or intrauterine system) were attached into a stainless steel holder in vertical position and the holders with the devices were placed into glass bottles containing 75 ml of a dissolution medium, a 1 wt-% hydroxypropyl cyclodextrin solution. The glass bottles were shaked in shaking waterbath 100 rpm at 37° C. The dissolution medium was withdrawn and replaced by a fresh dissolution medium at predetermined time intervals, and the amount of the released substance was analysed by using standard HPLC methods. The concentration of the dissolution medium and the moment of change (withdrawal and replacement) of medium were selected, so that sink-conditions were maintained during the test. The present invention was also tested with an implant containing gestodene, a synthetic progestogene hormone. The implant core and membrane rods were made with extrusion and the implant composition was made by swelling the membrane in propanol. The outer diameter of the implant core was 2.5-3.0 mm and the length 40-48 mm. The content of the therapeutically active agent in the core was 65 wt-%. The membrane thickness was 0.25 mm, inner diameter 2.35-2.65 mm, outer diameter was 3.0-3.25 mm and length 10 mm longer than the elastomer core. The HPBCD content of the implant membrane was 4 wt-%. The membrane was made of PEO-b-PDMS (15 wt-%) and PDMS (85 wt-%). The results are shown in FIG. 2 as the release rate of the therapeutically active agent (μg/d, shown in y-axis) versus time (days, shown in x-axis), wherein the squares represent the results for the Reference 1, the losanges represent the results for an implant having a HPBCD-containing membrane and the triangles illustrate the results for Reference 2. Reference 1 comprises a core having an outer diameter of 2.5 mm and a length of 40 mm, and a membrane, the thickness of which is 0.25 mm. The implant having a membrane containing 1 wt-% HPBCD has a core with an outer diameter of 3.03 mm and a length of 44 mm, and the membrane wall of 0.25 mm. Reference 2 comprises a core having an outer diameter of 2.8 mm, a length of 48 mm and the membrane with a wall of 0.25 mm.

- release rate when HPBCD is added into the membrane ([1]; HPBCD modified IVR vs reference samples): seems to be higher
- release rate trend over time ([1]; HPBCD modified IVR, first two weeks, up to the zenith point): slightly increasing trend
- release rate compared to ordinary ring with 0.9 mm wall ([1]; IVR with 0.17 w-% HPBCD content and 0.7 mm membrane wall, two and half week release): stays equal
- initial burst without the modification relative to that found for modified samples ([1]; IVR without HPBCD (membrane wall 0.3 and 0.9 mm) vs HPBCD modified samples, FIG. 1): five to ten times
- initial burst without the modification relative to the release rate in two weeks dissolution ([1]; IVR without HPBCD (membrane wall 0.3 and 0.9 mm), FIG. 1): three to five times
- initial burst effect ([1]; IVR, all HPBCD modified samples (0.17, 1.7, 7.7 wt-% HPBCD in membrane; wall 0.7, 0.35, 0.25 mm), 1 wt-% hydroxypropyl cyclodextrin medium, 37° C, FIG. 1): negative initial burst effect
SMILES: C#C[C@]1(O)CC[C@H]2[C@@H]3CCC4=Cc5oncc5C[C@]4(C)[C@H]3CC[C@@]21C [danazol, (17alpha)-pregna-2,4-dien-20-yn[2,3-d]isoxazol-17-ol]

- burst effect ([2]; amount of cyclodextrin in membrane 1 wt-%): still some burst effect remaining
- level of the release rate ([2]; amount of cyclodextrin in the membrane 4 wt-% (vs 1 wt-%)): higher
- release rate profile compared to reference sample ([2]; both cyclodextrin modified samples (1 and 4 wt-%)): higher
- initial burst ([2]; both cyclodextrin-modified membranes (1 and 4 wt-% HPBCD) vs reference sample, FIG. 3): decreased
- shape of the curve of the release rate after two days ([2]; reference and modified samples compared): similar
SMILES: CC(=O)c1ccc(C2C[C@@]3(C)[C@@H](CCC3(O)C(F)(F)C(F)(F)F)[C@@H]3CCC4=CC(=O)CCC4=C23)cc1 (stereo partly drawn) [FAP, 11-(4-Acetylphenyl)-17-hydroxy-17-(1,1,2,2,2-pentafluoroethyl)estra-4,9-dien-3-one]

- total decrease of release in 14 days ([3]; both reference samples (implants without HPBCD in membrane), FIG. 2): 30%
- total decrease of the gestodene release from the second to the third week ([3]; implant with cyclodextrin (HPBCD) modified membrane): 0.5%
- maximum decrease of release in two weeks ([3]; implant with cyclodextrin (HPBCD) modified membrane, FIG. 2): ca. 6%
- decrease of the gestodene release from the second to the third week ([3]; reference samples (implants without HPBCD in membrane)): 8.4% and 11%
SMILES: C#C[C@]1(O)C=C[C@H]2[C@@H]3CCC4=CC(=O)CC[C@@H]4[C@H]3CC[C@@]21CC [gestodene]
